Test results as given in ChEMBL document CHEMBL1201862, “PubChem BioAssay data set” (2004).
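All cell lines were grown in 96-well plates and treated with compound for 48 hours. GI50 marks 50% less growth.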 Active and inactive are the calls of the source. No stated cut-off is given here; in the data, active = GI50 up to about 1.1 µM and inactive = higher.

Tests used:
Test in all cases: NCI tumour cell line growth inhibition, 48 h
[1] = test system: T47D
[2] = test system: DU-145
[3] = test system: NCI/ADR-RES
[4] = test system: SF-295
[5] = test system: RXF 393
[6] = test system: LOX IMVI
[7] = test system: M14
[8] = test system: MDA-MB-435
[9] = test system: TK-10
[10] = test system: SK-MEL-5
[11] = test system: NCI-H226
[12] = test system: OVCAR-5
[13] = test system: SF-268
[14] = test system: NCI-H23
[15] = test system: DLD-1
[16] = test system: OVCAR-8
[17] = test system: SNB-19
[18] = test system: UO-31
[19] = test system: OVCAR-3
[20] = test system: A498
[21] = test system: NCI-H460
[22] = test system: OVCAR-4
[23] = test system: RXF 631
[24] = test system: SK-MEL-2
[25] = test system: EKVX
[26] = test system: HT-29
[27] = test system: CAKI-1
[28] = test system: A549
[29] = test system: U-251
[30] = test system: UACC-62
[31] = test system: UACC-257
[32] = test system: SN12C
[33] = test system: DMS-114
[34] = test system: BT-549
[35] = test system: SK-OV-3
[36] = test system: IGROV-1
[37] = test system: XF498
[38] = test system: Malme-3M
[39] = test system: NCI-H522
[40] = test system: HOP-62
[41] = test system: SNB-75
[42] = test system: MDA-N
[43] = test system: HOP-18
[44] = test system: SW-620
[45] = test system: MCF7
[46] = test system: Hs-578T
[47] = test system: RPMI-8226
[48] = test system: LXFL 529
[49] = test system: M19-MEL
[50] = test system: SK-MEL-28
[51] = test system: K562
[52] = test system: MDA-MB-231
[53] = test system: SF-539
[54] = test system: ACHN
[55] = test system: 786-0
[56] = test system: COLO 205
[57] = test system: DMS-273
[58] = test system: HOP-92
[59] = test system: HCT-116
[60] = test system: HCC 2998
[61] = test system: KM12
[62] = test system: PC-3
[63] = test system: MOLT-4
[64] = test system: HL-60
[65] = test system: KM-20L2
[66] = test system: HCT-15
[67] = test system: SR
[68] = test system: SNB-78

Measured: GI50

CC(C(=O)O)/C(=C\c1ccc2c(c1)OCO2)C(=O)O (stereo not drawn)
inactive: [1] > 100 µM | [2] > 100 µM | [3] > 100 µM | [4] > 100 µM | [5] > 100 µM | [6] > 100 µM | [7] > 100 µM | [8] > 100 µM | [9] > 100 µM | [10] > 100 µM | [11] > 77.6 µM | [12] > 10 µM | [13] > 100 µM | [14] > 100 µM | [15] > 100 µM | [16] > 100 µM | [17] > 100 µM | [18] > 100 µM | [19] > 100 µM | [20] > 100 µM | [21] > 100 µM | [22] > 100 µM | [23] > 100 µM | [24] > 100 µM | [25] > 53.6 µM | [26] > 61.5 µM | [27] > 100 µM | [28] > 100 µM | [29] > 100 µM | [30] > 100 µM | [31] > 100 µM | [32] > 100 µM | [33] > 100 µM | [34] > 100 µM | [35] > 100 µM | [36] > 100 µM | [37] > 100 µM | [38] > 100 µM | [39] > 100 µM | [40] > 100 µM | [41] > 100 µM | [42] > 100 µM | [43] > 100 µM | [44] > 100 µM | [45] > 100 µM | [46] > 100 µM | [47] > 100 µM | [48] > 100 µM | [49] > 100 µM | [50] > 100 µM | [51] > 92.5 µM | [52] > 100 µM | [53] > 100 µM | [54] > 100 µM | [55] > 100 µM | [56] > 100 µM | [57] > 100 µM | [58] > 100 µM | [59] > 100 µM | [60] > 100 µM | [61] > 100 µM | [62] > 100 µM | [63] > 6.89 µM | [65] > 100 µM
> 100 µM: [66]
active: [64] 0.0226 µM

COc1cc2c3c(c1OC)C1(C=CC(=O)C=C1)C[C@H]3N(C)CC2 [PRONUCIFERINE]
inactive: [4] > 100 µM | [5] 26 µM | [6] > 100 µM | [7] > 100 µM | [9] > 100 µM | [10] > 100 µM | [11] > 100 µM | [12] > 100 µM | [13] > 100 µM | [14] > 100 µM | [15] > 100 µM | [16] > 100 µM | [17] > 100 µM | [18] > 100 µM | [19] > 100 µM | [21] > 100 µM | [23] > 100 µM | [24] > 100 µM | [25] > 100 µM | [26] > 100 µM | [28] > 100 µM | [29] > 100 µM | [30] > 100 µM | [31] > 100 µM | [32] > 100 µM | [33] > 100 µM | [35] > 100 µM | [36] > 100 µM | [37] > 100 µM | [38] > 100 µM | [39] 74.3 µM | [41] > 100 µM | [43] > 100 µM | [44] > 100 µM | [47] > 100 µM | [48] > 100 µM | [49] > 100 µM | [50] > 100 µM | [53] > 100 µM | [54] > 100 µM | [55] > 100 µM | [56] > 100 µM | [57] > 100 µM | [67] > 100 µM | [58] > 100 µM | [59] > 100 µM | [60] > 100 µM | [61] > 100 µM | [68] > 100 µM | [63] > 100 µM | [65] > 100 µM
> 100 µM: [66]
